Measurements: patent US20010003751A1, “Pharmaceutical composition for treating transient ischemic attack” (priority 1995, published 2001)

System: transient ischemic attack (TIA) associated with the internal carotid arterial system
Experiment: phase III clinical study of TIA (efficacy in suppressing TIA recurrence, overall safety, utility ratings)
Assay type: in vivo, human (TIA patients)
Conditions: TIA patients; for Efficacy (%): Effective / Efficacy (%): Indeterminable / Efficacy (%): Ineffective / Efficacy (%): Slightly Effective / Efficacy (%): Worsened: ITT
Procedure: Subjects and total number: The subjects of this study were patients who developed one or more TIA attacks associated with the internal carotid arterial system (NIH Diagnostic Criteria, 1990) during the 3-month period before initial administration (171 for efficacy and utility, 175 for safety). Tablets each containing 50 mg or 100 mg of the subject compound obtained in Example 1 were orally administered after breakfast once daily for 18 months. The study was conducted in double blind fashion. As regards conversion to cerebral infarction, temporal changes in TIA onset frequency, TIA symptoms and duration, etc., efficacy was rated at 6 months, 1 year and 18 months of administration, using a 5-grade rating system: The attack frequency at time of rating (during therapeutic period) 1 year and 18 months after initial administration served as an efficacy rating index. For rating at 6 months of administration and rating at less than 1 year due to discontinuation (adverse reactions etc.), rating was in regard to duration of administration period, with reference to the following rating criteria. [table] Overall safety was rated on the basis of adverse reactions, complications, and presence or absence of abnormal changes in clinical laboratory parameters and their degrees, using a 5-grade rating system: On the basis of efficacy and overall safety ratings for suppression of TIA recurrence, utility was rated using a 5-grade rating system: With regard to the above rating items, data were analyzed using ITT (intent-to-treat analysis), with the utility rating in overall assessment at final administration (18 months after administration) as the major item.

[1] = 50 mg/day oral once daily for 18 months, 86 patients
[2] = 50 mg/day oral once daily for 18 months, 85 patients
[3] = 100 mg/day oral once daily for 18 months, 89 patients
[4] = 100 mg/day oral once daily for 18 months, 86 patients

O=C(O)CCCC/C=C(\c1ccccc1)c1cccnc1 [Test compound, (E)-7-(3-pyridyl)-7-phenyl-6-heptenic acid]
Overall Safety (%): Considerably Problematic [1]: 1.2% | Overall Safety (%): Indeterminable [1]: 4.7% | Overall Safety (%): No Problem [1]: 86.0% | Overall Safety (%): Slightly Problematic [1]: 8.1% | Overall Safety (%): Very Problematic [1]: 0% | Efficacy (%): Effective [2]: 64.7% | Efficacy (%): Indeterminable [2]: 10.6% | Efficacy (%): Ineffective [2]: 16.5% | Efficacy (%): Slightly Effective [2]: 2.3% | Efficacy (%): Worsened [2]: 5.9% | Overall Safety (%): Considerably Problematic [3]: 1.1% | Overall Safety (%): Indeterminable [3]: 3.4% | Overall Safety (%): No Problem [3]: 79.8% | Overall Safety (%): Slightly Problematic [3]: 13.5% | Overall Safety (%): Very Problematic [3]: 2.2% | Efficacy (%): Effective [4]: 66.3% | Efficacy (%): Indeterminable [4]: 11.6% | Efficacy (%): Ineffective [4]: 8.1% | Efficacy (%): Slightly Effective [4]: 7.0% | Efficacy (%): Worsened [4]: 7.0%
